Data reported in PubChem BioAssay (NCI).
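Five compound concentrations were applied to cells in 96-well plates for 48 hours; endpoints were derived by simple linear interpolation of the resulting dose-response curve. TGI is the concentration that stops growth completely.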

What was measured:
Test in all cases: inhibition of tumour cell growth, NCI panel, 48 h
786-0 renal = system: 786-0 renal
A549 NSCLC = system: A549 NSCLC
ACHN renal = system: ACHN renal
CAKI-1 renal = system: CAKI-1 renal
CCRF-CEM leukemia = system: CCRF-CEM leukemia
COLO 205 colon = system: COLO 205 colon
DLD-1 colon = system: DLD-1 colon
DMS 114 small cell lung = system: DMS 114 small cell lung
DMS 273 small cell lung = system: DMS 273 small cell lung
EKVX NSCLC = system: EKVX NSCLC
HCT-116 colon = system: HCT-116 colon
HCT-15 colon = system: HCT-15 colon
HOP-18 NSCLC = system: HOP-18 NSCLC
HOP-62 NSCLC = system: HOP-62 NSCLC
HOP-92 NSCLC = system: HOP-92 NSCLC
HT29 colon = system: HT29 colon
IGROV1 ovarian = system: IGROV1 ovarian
K-562 leukemia = system: K-562 leukemia
KM12 colon = system: KM12 colon
KM20L2 colon = system: KM20L2 colon
LOX IMVI melanoma = system: LOX IMVI melanoma
LXFL 529 NSCLC = system: LXFL 529 NSCLC
M14 melanoma = system: M14 melanoma
M19-MEL melanoma = system: M19-MEL melanoma
MALME-3M melanoma = system: MALME-3M melanoma
MOLT-4 leukemia = system: MOLT-4 leukemia
NCI-H226 lung = system: NCI-H226 lung
NCI-H23 lung = system: NCI-H23 lung
NCI-H460 lung = system: NCI-H460 lung
NCI-H522 lung = system: NCI-H522 lung
OVCAR-3 ovarian = system: OVCAR-3 ovarian
OVCAR-4 ovarian = system: OVCAR-4 ovarian
OVCAR-5 ovarian = system: OVCAR-5 ovarian
OVCAR-8 ovarian = system: OVCAR-8 ovarian
RPMI-8226 leukemia = system: RPMI-8226 leukemia
RXF 393 renal = system: RXF 393 renal
RXF-631 renal = system: RXF-631 renal
SF-268 CNS = system: SF-268 CNS
SF-295 CNS = system: SF-295 CNS
SF-539 CNS = system: SF-539 CNS
SK-MEL-2 melanoma = system: SK-MEL-2 melanoma
SK-MEL-28 melanoma = system: SK-MEL-28 melanoma
SK-MEL-5 melanoma = system: SK-MEL-5 melanoma
SK-OV-3 ovarian = system: SK-OV-3 ovarian
SN12C renal = system: SN12C renal
SNB-19 CNS = system: SNB-19 CNS
SNB-75 CNS = system: SNB-75 CNS
SNB-78 CNS = system: SNB-78 CNS
SW-620 colon = system: SW-620 colon
TK-10 renal = system: TK-10 renal
U251 CNS = system: U251 CNS
UACC-257 melanoma = system: UACC-257 melanoma
UACC-62 melanoma = system: UACC-62 melanoma
UO-31 renal = system: UO-31 renal
XF 498 CNS = system: XF 498 CNS
A498 renal = system: A498 renal
HCC-2998 colon = system: HCC-2998 colon

Molecule `COC(=O)C1=C(C(=O)OC)C2(C3C(SC)=CC(C)(C)CC3S1)N(Cc1ccccc1)CCN2Cc1ccccc1` (stereo not given) has a TGI (786-0 renal) of over 100 µM, a TGI (A549 NSCLC) of over 100 µM and a TGI (ACHN renal) of over 100 µM. The TGI (CAKI-1 renal) was over 100 µM, the TGI (CCRF-CEM leukemia) was over 100 µM and the TGI (COLO 205 colon) was over 100 µM. For the same molecule, the TGI (DLD-1 colon) was over 100 µM, the TGI (DMS 114 small cell lung) was over 100 µM and the TGI (DMS 273 small cell lung) was over 100 µM. The TGI (EKVX NSCLC) was over 100 µM, the TGI (HCT-116 colon) was over 100 µM and the TGI (HCT-15 colon) was over 100 µM. For the same molecule, the TGI (HOP-18 NSCLC) was over 100 µM, the TGI (HOP-62 NSCLC) was over 100 µM and the TGI (HOP-92 NSCLC) was 16.1 µM. The TGI (HT29 colon) was over 100 µM, the TGI (IGROV1 ovarian) was over 100 µM and the TGI (K-562 leukemia) was over 100 µM. For the same molecule, the TGI (KM12 colon) was over 100 µM, the TGI (KM20L2 colon) was over 100 µM and the TGI (LOX IMVI melanoma) was over 100 µM. It also gave a TGI (LXFL 529 NSCLC) of over 100 µM, a TGI (M14 melanoma) of over 100 µM and a TGI (M19-MEL melanoma) of over 100 µM. It also gave a TGI (MALME-3M melanoma) of over 100 µM, a TGI (MOLT-4 leukemia) of over 100 µM and a TGI (NCI-H226 lung) of over 100 µM. It also gave a TGI (NCI-H23 lung) of over 100 µM, a TGI (NCI-H460 lung) of over 100 µM and a TGI (NCI-H522 lung) of over 100 µM. It also gave a TGI (OVCAR-3 ovarian) of over 100 µM, a TGI (OVCAR-4 ovarian) of over 100 µM and a TGI (OVCAR-5 ovarian) of over 100 µM. For the same molecule, the TGI (OVCAR-8 ovarian) was over 100 µM, the TGI (RPMI-8226 leukemia) was over 100 µM and the TGI (RXF 393 renal) was over 100 µM. The TGI (RXF-631 renal) was over 100 µM, the TGI (SF-268 CNS) was over 100 µM and the TGI (SF-295 CNS) was over 100 µM. It also gave a TGI (SF-539 CNS) of over 100 µM, a TGI (SK-MEL-2 melanoma) of over 100 µM and a TGI (SK-MEL-28 melanoma) of over 100 µM. The TGI (SK-MEL-5 melanoma) was over 100 µM, the TGI (SK-OV-3 ovarian) was over 100 µM and the TGI (SN12C renal) was over 100 µM. It also gave a TGI (SNB-19 CNS) of over 100 µM, a TGI (SNB-75 CNS) of over 100 µM and a TGI (SNB-78 CNS) of over 100 µM. It also gave a TGI (SW-620 colon) of over 100 µM, a TGI (TK-10 renal) of over 100 µM and a TGI (U251 CNS) of over 100 µM. The TGI (UACC-257 melanoma) was over 100 µM, the TGI (UACC-62 melanoma) was over 100 µM and the TGI (UO-31 renal) was over 100 µM. For the same molecule, the TGI (XF 498 CNS) was over 100 µM.

For `C/C(=N/NC(=O)c1ccccc1O)c1ccc(/C(C)=N\NC(=O)c2ccccc2O)c2nc3cc(C)c(C)cc3nc12`, the TGI (786-0 renal) was over 100 µM, the TGI (A498 renal) was over 100 µM and the TGI (A549 NSCLC) was over 100 µM. It also gave a TGI (ACHN renal) of over 100 µM, a TGI (CCRF-CEM leukemia) of over 100 µM and a TGI (COLO 205 colon) of over 100 µM. For the same molecule, the TGI (DLD-1 colon) was over 100 µM, the TGI (DMS 114 small cell lung) was over 100 µM and the TGI (DMS 273 small cell lung) was over 100 µM. The TGI (EKVX NSCLC) was over 100 µM, the TGI (HCC-2998 colon) was over 100 µM and the TGI (HCT-116 colon) was over 100 µM. It also gave a TGI (HCT-15 colon) of over 100 µM, a TGI (HOP-18 NSCLC) of over 100 µM and a TGI (HOP-62 NSCLC) of over 100 µM. It also gave a TGI (HOP-92 NSCLC) of over 100 µM, a TGI (HT29 colon) of over 100 µM and a TGI (IGROV1 ovarian) of over 100 µM. The TGI (K-562 leukemia) was over 100 µM, the TGI (KM12 colon) was over 100 µM and the TGI (KM20L2 colon) was over 100 µM. It also gave a TGI (LOX IMVI melanoma) of over 100 µM, a TGI (LXFL 529 NSCLC) of over 100 µM and a TGI (M14 melanoma) of over 100 µM. The TGI (M19-MEL melanoma) was over 100 µM, the TGI (MALME-3M melanoma) was over 100 µM and the TGI (MOLT-4 leukemia) was over 100 µM. It also gave a TGI (NCI-H226 lung) of over 100 µM, a TGI (NCI-H23 lung) of over 100 µM and a TGI (NCI-H460 lung) of over 100 µM. The TGI (NCI-H522 lung) was over 100 µM, the TGI (OVCAR-3 ovarian) was over 100 µM and the TGI (OVCAR-4 ovarian) was over 100 µM. It also gave a TGI (OVCAR-5 ovarian) of over 100 µM, a TGI (OVCAR-8 ovarian) of over 100 µM and a TGI (RXF 393 renal) of over 100 µM. For the same molecule, the TGI (RXF-631 renal) was over 100 µM, the TGI (SF-268 CNS) was over 100 µM and the TGI (SF-295 CNS) was over 100 µM. It also gave a TGI (SF-539 CNS) of over 100 µM, a TGI (SK-MEL-2 melanoma) of over 100 µM and a TGI (SK-MEL-28 melanoma) of over 100 µM. The TGI (SK-MEL-5 melanoma) was over 100 µM, the TGI (SK-OV-3 ovarian) was over 100 µM and the TGI (SN12C renal) was over 100 µM. The TGI (SNB-19 CNS) was over 100 µM, the TGI (SNB-75 CNS) was over 100 µM and the TGI (SNB-78 CNS) was over 100 µM. For the same molecule, the TGI (SW-620 colon) was over 100 µM, the TGI (TK-10 renal) was over 100 µM and the TGI (U251 CNS) was over 100 µM. For the same molecule, the TGI (UACC-257 melanoma) was over 100 µM, the TGI (UACC-62 melanoma) was over 100 µM and the TGI (UO-31 renal) was over 100 µM. For the same molecule, the TGI (XF 498 CNS) was over 100 µM.

Work on `C[C@]12CC[C@H](OC3CCCCO3)CC1=CC[C@@H]1C2CC[C@]2(C)/C(=N/OCCC#N)CCC12` (stereo not given in full) yielded a TGI (786-0 renal) of 72.2 µM, a TGI (A498 renal) of over 100 µM and a TGI (A549 NSCLC) of over 100 µM. The TGI (ACHN renal) was over 100 µM, the TGI (CAKI-1 renal) was over 100 µM and the TGI (DLD-1 colon) was over 100 µM. For the same molecule, the TGI (DMS 114 small cell lung) was over 100 µM, the TGI (DMS 273 small cell lung) was over 100 µM and the TGI (EKVX NSCLC) was over 100 µM. For the same molecule, the TGI (HCC-2998 colon) was over 100 µM, the TGI (HCT-116 colon) was over 100 µM and the TGI (HCT-15 colon) was over 100 µM. The TGI (HOP-18 NSCLC) was over 100 µM, the TGI (HOP-62 NSCLC) was over 100 µM and the TGI (HOP-92 NSCLC) was 57.6 µM. For the same molecule, the TGI (IGROV1 ovarian) was over 100 µM, the TGI (K-562 leukemia) was over 100 µM and the TGI (KM12 colon) was over 100 µM. The TGI (KM20L2 colon) was over 100 µM, the TGI (LOX IMVI melanoma) was over 100 µM and the TGI (LXFL 529 NSCLC) was over 100 µM. For the same molecule, the TGI (M14 melanoma) was over 100 µM, the TGI (M19-MEL melanoma) was over 100 µM and the TGI (MALME-3M melanoma) was over 100 µM. It also gave a TGI (NCI-H23 lung) of 95.1 µM, a TGI (NCI-H460 lung) of over 100 µM and a TGI (NCI-H522 lung) of over 100 µM. For the same molecule, the TGI (OVCAR-3 ovarian) was over 100 µM, the TGI (OVCAR-4 ovarian) was 66.5 µM and the TGI (OVCAR-8 ovarian) was over 100 µM. The TGI (RPMI-8226 leukemia) was over 100 µM, the TGI (RXF 393 renal) was 40.2 µM and the TGI (RXF-631 renal) was over 100 µM. For the same molecule, the TGI (SF-295 CNS) was over 100 µM, the TGI (SF-539 CNS) was over 100 µM and the TGI (SK-MEL-2 melanoma) was over 100 µM. The TGI (SK-MEL-28 melanoma) was over 100 µM, the TGI (SK-MEL-5 melanoma) was over 100 µM and the TGI (SK-OV-3 ovarian) was over 100 µM. The TGI (SN12C renal) was over 100 µM, the TGI (SNB-19 CNS) was over 100 µM and the TGI (SNB-75 CNS) was 58.4 µM. For the same molecule, the TGI (SNB-78 CNS) was 72.1 µM, the TGI (SW-620 colon) was over 100 µM and the TGI (TK-10 renal) was 72.9 µM. It also gave a TGI (U251 CNS) of over 100 µM, a TGI (UACC-257 melanoma) of over 100 µM and a TGI (UACC-62 melanoma) of over 100 µM. The TGI (UO-31 renal) was over 100 µM and the TGI (XF 498 CNS) was 20.5 µM.
